{"source": "patent US6984486B1", "about": "“Synthetic peptide of regulatory virus protein R (VPR) of human immunodeficiency virus type 1 (HIV-1) and the utilization thereof” (J. David Gladstone Institutes, priority 1999, dated 2006)", "key": {"HIV-1NL4-3": {"tested_on": "HIV-1NL4-3", "details": "cultures of human PBMC, 10 nM peptide", "source_text": "(§1) Cultures of PHA- and IL-2-activated PBMCs were infected with equal infectious doses of the following virus stocks: HIV-1NL4-3 (A, B, C), NL4-3(AD8) (D) as well as the vpu-deficient mutant NL(AD8)-UDEL1 (E), and the vpr-deficient mutant NL(AD8)deltaR (F)."}, "human PBMC": {"tested_on": "human PBMC", "details": "cultures of human PBMC infected with HIV-1NL4-3, 10 nM peptide", "source_text": "as §1"}, "[1]": {"tested_on": "vpr deficient HIV-1 mutant viruses", "details": "primary human monocytes/macrophages from different donors, vpr-deficient mutant NL(AD8)deltaR, two months", "source_text": "Parallel cultures of differentiated MDM isolated from three different donors were infected with equal infectious doses of purified virus stocks of the macrophage-tropic virus NL4-3(AD8) as well as the vpr-deficient mutant NL(AD8)deltaR. Virus production was followed over a time frame of two months and release of virus associated RT-activity was plotted against time."}, "[2]": {"details": "compared with native viral Vpr"}}, "data": [{"substance": "H-Met-Glu-Gln-Ala-Pro-Glu-Asp-Gln-Gly-Pro-Gln-Arg-Glu-Pro-Tyr-Asn-Gln-Trp-Thr-Leu-Glu-Leu-Leu-Glu-Glu-Leu-Lys-Ser-Glu-Ala-Val-Arg-His-Phe-Pro-Arg-Ile-Trp-Leu-His-Asn-Leu-Gly-Gln-His-Ile-Tyr-Glu-Thr-Tyr-Gly-Asp-Thr-Trp-Ala-Gly-Val-Glu-Ala-Ile-Ile-Arg-Ile-Leu-Gln-Gln-Leu-Leu-Phe-Ile-His-Phe-Arg-Ile-Gly-Cys-Arg-His-Ser-Arg-Ile-Gly-Val-Thr-Arg-Gln-Arg-Arg-Ala-Arg-Asn-Gly-Ala-Ser-Arg-Set-OH [sVpr^1-96]", "values": [{"measurement": "virus replication (virus associated RT-activity released into cell culture supernatant)", "setting": "HIV-1NL4-3", "result": "activates virus replication"}, {"measurement": "number of live cells", "setting": "human PBMC", "result": "increases the number of live cells"}, {"measurement": "virus replication (release of virus associated RT-activity)", "setting": "[1]", "result": "activates virus replication"}, {"measurement": "biological activities", "setting": "[2]", "result": "comparable to native viral Vpr"}]}]}
